Patent US7659278B2, “Use of low molecular weight compounds for preparing a medicament useful in treating mutant p53 mediated diseases” (Aprea AB, priority 2002, dated 2010)

Tests used:
SKOV-His-175 cells = assay: WST-1 proliferation assay, SKOV-His-175 cells (cycloheximide, His-175-22/23 comparison); type: cell-based, human; conditions: for increase in cell survival after cycloheximide pretreatment: cycloheximide before compound, WST-1
[1] = system: MDM2 and p21 in HCT 116 colon carcinoma cells (wild type p53); assay: Western blot of MDM2 and p21, HCT 116; type: cell-based, human
[2] = system: p53-responsive PG-luciferase reporter in Saos-2-His-273 cells; assay: PG-luciferase p53 reporter assay in Saos-2-His-273; type: cell-based, human
Protocol: Transactivation assays using p53-responsive promoter constructs linked to the luciferase reporter gene (PG-luc) were performed by the Dual Luciferase Reporter Assay System (Promega) according to the manufacturer. […] A luciferase activity was assayed 1; 3.5 and 15 hours post-treatment.
Whereas compound MIRA-1 stimulated luciferase expression 2-fold already after 3.5 hours, 2-fold induction by compound PRIMA-I was achieved only after 15 hours of treatment.

[3] = system: endogenous mutant p53 proteins; type: biochemical, human; conditions: cell extracts of human tumor cell lines, band shift
Protocol: PAb421 antibody was added to all reaction mixtures. […] Monoclonal antibody PAb421 was added to the reaction mixtures in lanes 2-8; PAb1801 was added to the reaction mixtures in lanes 9-15.
The GST-p53 proteins were prepared as described (Selivanova et al., 1997). Band shift assays were performed in binding buffer containing 100 mM HEPES pH 7.5, 50 mM KCl, 1 mg/ml BSA, 0.1% Triton X-100, 2 mM MgC12 and 1 mM DTT essentially as in (Selivanova et al., 1996).

[4] = system: p21 and MDM2 in H1299-His-175 cells; assay: Western blot of p53 target genes p21 and MDM2, H1299-His-175; type: cell-based, human
Saos-2-His-273 cell line = assay: Library screening / WST-1 growth suppression and growth curves, Saos-2-His-273; type: cell-based, human; conditions: for growth suppression: with vs without mutant p53 expression, WST-1
Protocol: In contrast, the effect of treatment on Saos-2 cells lacking p53 expression was rather minor. […] The degree of WST-1 reduction, which reflects a number of living cells, was measured by microplate reader at λ490 nm according to manufacturer (Roche). The growth suppression was calculated as a difference in absorbance at λ 490 nm between untreated and treated cells and expressed in a percent from untreated control. Growth suppression=100%×(control absorbance−treated absorbance)/control absorbance. […] The experimental set up was as described in FIG. 2A. The differences in a viability were statistically significant according to an independent t-test.
(§1) Saos-2-His-273 cell line stably transfected with construct allowing expression of mutant His-273 p53 in a tetracycline-dependent manner was used for screening (Selivanova et al., 1997). p53 expression was inhibited by incubation of cells with doxycycline (5 μg/ml). Cells were grown in 96-well plates at a density of 3000 cells per well with or without doxycycline and treated with 25 μM of the compounds from the NCI library of low molecular weight (LMW) compounds. After 48 hours of incubation the proliferative cell reagent WST-1 (Roche) was added to the cells. The degree of WST-1 reduction, which reflects cell viability, was measured by microplate reader at λ490 nm according to the manufacturer (Roche).
as §1, with “1997).” for “1997). p53 expression was inhibited by incubation of cells with doxycycline (5 μg/ml).”, “doxycycline. The treatment was done at a concentration of” for “doxycycline and treated with”, “each chemical” for “the compounds”, “is proportional to the” for “reflects”, “by a” for “by”, “λ 490=n” for “λ490 nm”

[5] = system: human tumour cell lines with different p53 status (p53 null, wild type p53, mutant p53); assay: WST-1 growth suppression in cell lines with different p53 status; type: cell-based; conditions: mutant p53 vs p53 null and wild type p53 cell lines
Protocol: The degree of WST-1 reduction, which reflects a number of living cells, was measured by microplate reader at λ490 nm according to manufacturer (Roche). The growth suppression was calculated as a difference in absorbance at λ 490 nm between untreated and treated cells and expressed in a percent from untreated control. Growth suppression=100%×(control absorbance−treated absorbance)/control absorbance. […] The experimental set up was as described in FIG. 2A.
The human cell lines were as follows. p53 null: Saos-2 osteosarcoma, K562 acute myeloid leukemia, and HL60 promyelocytic leukemia Wild type p53 expressing cells: NHF normal human fibroblasts, HeLa cervical carcinoma (carries HPV E6 protein, leading to p53 degradation), U2OS osteosarcoma, and EBV-positive IARC 171 lymphoblastoid cell line. […] In addition, mouse p53 null J3D T-cell lymphoma line was used.

[6] = target: T1, GST-wild type p53 protein (Homo sapiens, UniProt P04637); assay: ELISA of p53 conformation epitopes (PAb1620, PAb240, DO-1), recombinant protein; type: biochemical; conditions: for appearance of PAb240 epitope (unfolding) upon heating: heating at 37° C.; for preservation of PAb 1620 epitope upon heating: recombinant wild type and mutant p53 proteins, 30 min at 37° C.
T1 construct: made in house
Protocol: Absorbance of the control sample incubated on ice was taken as 100%.
The procedure was performed with or without tested compounds. The ELISA analyses were done as described by (Foster et al., 1999). Briefly, after the treatment, samples were diluted with coating buffer (150 mM KCL, 25 mM HEPES) supplemented with 10 mM DTT. The whole mixture was apply to ELISA plates (MaxiSorp, Nunc) and incubated at +4° C. for 35 min. The wells were washed with coating buffer. The wells were blocked by 5% skim milk in PBS by incubating at +4° C. for 1 h. Wells were rinsed twice with PBS followed by addition of mouse primary antibodies (PAb 1620 or PAb 240) diluted 1:250 in coating buffer. Samples were incubated at +4° C. for 30 min. Wells were rinsed twice with PBS. After that, a secondary antibody (anti-mouse, conjugated with horse radish peroxidase) was incubated with samples at +4° C. for 30 min. Then plates were washed 5 times with PBS and a peroxidase substrate was added. An absorbance at λ405 nm was monitored by ELISA reader.

[7] = system: p53-responsive EGFP reporter in SKOV-His-175 cells; assay: p53-responsive EGFP reporter in SKOV-His-175 cells; type: cell-based, human
Protocol: FIG. 9B, mutant p53-dependent activation of the wild-type p53-responsive EGFP reporter in PRIMA-1-treated SKOV-His-175 cells. […] FIG. 9C, MIRA-1 induced wild-type p53-responsive EGFP reporter in SKOV-His-175 cells.
The p53-EGFP plasmid contains 13 synthetic p53 consensus DNA binding sites in front of the EGFP coding sequence. Transient transfections experiments were performed with Lipofectamine 2000 according to the manufacturer's recommendations (Invitrogemm Life Technologies, Groningen, The Netherlands).
We also transiently transfected SKOV-His-175 cells with a p53-responsive EGFP reporter.

[8] = absence of mutant p53 expression
[9] = cells expressing mutant p53, PRIMA-1 25 μM, MIRA-1 10 μM
[10] = recombinant protein treated with compound

T1 sequence (P04637 whole entry): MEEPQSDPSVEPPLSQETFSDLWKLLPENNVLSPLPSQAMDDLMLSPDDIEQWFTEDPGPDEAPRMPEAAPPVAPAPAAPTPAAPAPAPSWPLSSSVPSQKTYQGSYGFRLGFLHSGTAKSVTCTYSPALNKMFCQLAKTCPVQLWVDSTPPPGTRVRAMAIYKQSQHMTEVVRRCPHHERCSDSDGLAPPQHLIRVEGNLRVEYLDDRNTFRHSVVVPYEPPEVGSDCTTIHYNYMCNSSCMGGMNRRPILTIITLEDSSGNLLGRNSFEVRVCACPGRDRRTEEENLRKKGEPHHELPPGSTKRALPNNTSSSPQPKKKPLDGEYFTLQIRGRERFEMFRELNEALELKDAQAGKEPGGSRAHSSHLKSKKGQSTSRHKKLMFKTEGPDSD

SMILES: CCCOCN1C(=O)C=CC1=O [MIRA-1, 1-(propoxymethyl)-maleimide]
- sensitivity of SKOV-His-175 cells in comparison with SKOV-His-175-22/23 cells (SKOV-His-175 cells; after compound treatment): at least 3 fold
- increase in cell survival after cycloheximide pretreatment (SKOV-His-175 cells): about 4 fold
- MDM2 and p21 protein levels [1]: did not cause any significant changes
- stimulation of luciferase expression ([2]; after 3.5 hours): 2 fold
- mutant p53 proteins with restored specific DNA binding [3]: 3 out of 14
- induction of MDM2 and p21 [4, 8]: did not cause any induction of MDM2 nor p21
- induction of MDM2 and p21 [4, 9]: solid induction of both MDM2 and p21
- growth suppression (Saos-2-His-273 cell line): suppressed the growth of cells expressing mutant p53 but did not affect the growth of cells lacking p53 expression
- growth suppression by p53 status [5]: suppressed the growth of mutant p53-expressing cells more efficiently then p53 null and wild type p53 containing cells
- appearance of PAb240 epitope (unfolding) upon heating [6]: able to prevent unfolding of p53 proteins
- increase in PAb1620+ fraction [6, 10]: About 40%
- reduction in PAb240+ fraction [6, 10]: −20%
- preservation of PAb 1620 epitope upon heating [6]: preserve the conformation-dependent epitope for PAb 1620 antibody
- EGFP reporter expression ([7]; 5 μM for 24 hours): induction of EGFP was also observed

SMILES: O=C1C2CCN(CC2)C1(CO)CO [PRIMA-1, 2,2-bis(hydroxymethyl)-1-azabicyclo[2.2.2]octan-3-one]
- increase in cell survival after cycloheximide pretreatment (SKOV-His-175 cells): 4 fold
- MDM2 and p21 protein levels [1]: did not cause any significant changes
- induction of luciferase expression ([2]; after 15 hours of treatment): 2 fold
- mutant p53 proteins with restored specific DNA binding [3]: 13 out of 14
- induction of MDM2 and p21 [4, 8]: did not cause any induction of MDM2 nor p21
- induction of MDM2 and p21 [4, 9]: solid induction of both MDM2 and p21
- growth of cells (growth curves) (Saos-2-His-273 cell line; [8]): only caused a minor reduction in growth rate
- growth of cells (growth curves) (Saos-2-His-273 cell line; cells expressing mutant p53): completely inhibited growth
- growth suppression (Saos-2-His-273 cell line): suppressed the growth of cells expressing mutant p53 but did not affect the growth of cells lacking p53 expression
- growth suppression by p53 status [5]: suppressed the growth of mutant p53-expressing cells more efficiently then p53 null and wild type p53 containing cells
- appearance of PAb240 epitope (unfolding) upon heating [6]: able to prevent unfolding of p53 proteins
- DO-1+ fraction [6, 10]: remained unchanged
- increase in PAb1620+ fraction [6, 10]: 40%
- reduction in PAb240+ fraction [6, 10]: corresponding decrease
- preservation of PAb 1620 epitope upon heating [6]: preserve the conformation-dependent epitope for PAb 1620 antibody
- EGFP reporter expression ([7]; cells expressing mutant p53, 24 hours): strong induction of EGFP expression
- EGFP reporter expression ([7]; presence of doxycycline (p53 off)): did not express detectable levels of EGFP
